Test [1] has as its system Candida albicans ATCC 64548. As to the kind of experiment: Paper disk method, enhancing action for activities of azole antifungal agents. The test is classed as cell-based. Particulars: 24 hours; for Inhibition activity (inhibition ring mm) C. albicans ATCC 64548 GYM / Transparency of the inhibition ring C. albicans ATCC 64548 GYM: miconazole 0.03 μg/ml; for Inhibition activity (inhibition ring mm) C. albicans ATCC 64548 GYF / Transparency of the inhibition ring C. albicans ATCC 64548 GYF: fluconazole 0.5 μg/ml. The method, then:
(§1) Test organisms used were Candida albicans ATCC 64548, fluconazole resistant Candida albicans ATCC 64550 and Aspergillus niger ATCC 6275. Candida spp. were cultured in Waksman broth (glucose 2.0%, peptone 0.5%, dry yeast 0.3%, meat extract 0.5%, NaCl 0.5% and CaCO3 0.3%, pH 7.0) at 27° C. for 40 hours, then 0.1% thereof was inoculated on GY agar medium (glucose 1.0%, yeast extract 0.5% and agar 0.8%, pH 6.0). Spore suspension 0.2% of Aspergillus niger ATCC 6275 was inoculated on GY agar medium.
(§2) Azole antifungal agents used were miconazole (Sigma Inc., the U.S.) and fluconazole (ICN Pharmaceuticals, Inc., the U.S.), and were added at concentrations without affecting growth on each test organisms follows.
Candida albicans ATCC 64548: miconazole 0.03 μg/ml or fluconazole 0.5 μg/ml.
(§3) In the above medium, a medium added with miconazole to GY medium (control) is designated as GYM, and a medium added with fluconazole is designated as GYF. Activities were assessed by means of paper disk method (thickness: 8 mm, ADVANTEC MFS INC., Japan). Diameter of inhibition ring is expressed with mm unit after culturing Candida spp. for 24 hours and Aspergillus niger ATCC 6275 for 48 hours. Transparency of the inhibition ring is assessed with 5 degrees of A, B, C, D and E (transparence<A<B<C<D<E<opaque).

In test [2] the test system is Aspergillus niger ATCC 6275. The test is described as above. Type of test: cell-based. Particulars: 48 hours. As for the experimental part:
as §1, §2
Aspergillus niger ATCC 6275: miconazole 0.1 μg/ml or fluconazole 10 μg/ml.
as §3

Where [3] appears, read: 50 μg/8 mm disk, GYF, fluconazole 10 μg/ml.
The mark [4] stands for this setting: 100 μg/8 mm disk, GYM, miconazole 0.1 μg/ml.
[5] abbreviates: 50 μg/8 mm disk, GY medium (control, no azole).

Turning to “2′,4″,13-Tri-O-anhydro-pseudoerythromycin A 6,9-hemiketal [Compound 719]”, the figures for the “Inhibition activity (inhibition ring mm) C. albicans ATCC 64548 GYM” value in test [1] (10 μg/8 mm disk), in test [1] (50 μg/8 mm disk) and in test [1] (100 μg/8 mm disk) were 9 mm, 10 mm and 13 mm, respectively. Besides, the “Transparency of the inhibition ring C. albicans ATCC 64548 GYM” value in test [1] (10 μg/8 mm disk), in test [1] (50 μg/8 mm disk) and in test [1] (100 μg/8 mm disk) was “E (Growth of test organism was inhibited 35% or less.)” each time.
As to `CCC(O)C(C)(O)C1OC(=O)C(C)C(OC2CC(C)(OC)C(O)C(C)O2)C(C)C(OC2OC(C)CC(N(C)CCN(C)C3CC(C)OC(OC4C(C)C(OC5CC(C)(OC)C(O)C(C)O5)C(C)C(=O)OC(C(C)(O)C(O)CC)C(C)C5=C(C)CC4(C)O5)C3O)C2O)C2(C)CC(C)=C(O2)C1C` (stereo not drawn) [Compound 741, 3′-de-N-methyl-3′-N-{-amino-(3′-de-N-methyl-anhydro-pseudoerythromycin A 6,9-hemiketal)}ethyl-anhydro-pseudoerythromycinA 6,9-hemiketal], in test [1] (100 μg/8 mm disk), the “Inhibition activity (inhibition ring mm) C. albicans ATCC 64548 GYM” value stood at 14 mm; the “Transparency of the inhibition ring C. albicans ATCC 64548 GYM” value is “D (Growth of test organism was inhibited 35% or more and 55% or less.)”.
Regarding `CCC1OC(=O)C(C)C(OC2CC(C)(OC)C(O)C(C)O2)C(C)C(OC2OC(C)CC(N(C)CCN(C)C3CC(C)OC(OC4C(C)C(OC5CC(C)(OC)C(O)C(C)O5)C(C)C(=O)OC(CC)C(C)(O)C(O)C(C)C(=O)C(C)CC4(C)O)C3O)C2O)C(C)(O)CC(C)C(=O)C(C)C(O)C1(C)O` (stereo not drawn) [Compound 752, 3′-de-N-methyl-3′-N-{2-amino-(3′-de-N-methyl-erythromycin A)}ethyl-erythromycin A], in test [1] (100 μg/8 mm disk), the “Inhibition activity (inhibition ring mm) C. albicans ATCC 64548 GYM” value turned out to be 12 mm and the “Transparency of the inhibition ring C. albicans ATCC 64548 GYM” value is “E (Growth of test organism was inhibited 35% or less.)”. In test [2] (setting [3]), the “Inhibition activity (inhibition ring mm) A. niger ATCC 6275 GYF” value is listed as 17 mm and the “Transparency of the inhibition ring A. niger ATCC 6275 GYF” value is reported as “E (Growth of test organism was inhibited 35% or less.)”.
For `CCC1OC(=O)C(C)C(OC2CC(C)(OC)C(O)C(C)O2)C(C)C(OC2OC(C)CC(N(C)CCN(C)C3CC(C)OC(OC4C(C)C(OC5CC(C)(OC)C(O)C(C)O5)C(C)C(=O)OC(CC)C(C)(O)C(O)C(C)C(=O)C(C)CC4(C)OC)C3O)C2O)C(C)(OC)CC(C)C(=O)C(C)C(O)C1(C)O` (stereo not drawn) [Compound 753, 3′-de-N-methyl-3′-N-{2-amino-(3′-de-N-methyl-clarythromycin A)}ethyl-clarythromycin], in test [1] (10 μg/8 mm disk), the “Inhibition activity (inhibition ring mm) C. albicans ATCC 64548 GYM” value worked out at 17 mm; the “Transparency of the inhibition ring C. albicans ATCC 64548 GYM” value was “C (Growth of test organism was inhibited 55% or more and 75% or less.)”. Besides, in test [1] (50 μg/8 mm disk), the “Inhibition activity (inhibition ring mm) C. albicans ATCC 64548 GYM” value was 22 mm; the “Transparency of the inhibition ring C. albicans ATCC 64548 GYM” value was “C (Growth of test organism was inhibited 55% or more and 75% or less.)”. Moreover, in test [2] (setting [4]), the “Inhibition activity (inhibition ring mm) A. niger ATCC 6275 GYM” value was determined as 13 mm and the “Transparency of the inhibition ring A. niger ATCC 6275 GYM” value is recorded as “E (Growth of test organism was inhibited 35% or less.)”.
As for `CCC1OC(=O)C(C)C(OC2CC(C)(OC)C(O)C(C)O2)C(C)C(OC2OC(C)CC(N(C)CC=CCN(C)C3CC(C)OC(OC4C(C)C(OC5CC(C)(OC)C(O)C(C)O5)C(C)C(=O)OC(CC)C(C)(O)C(O)C(C)C(=O)C(C)CC4(C)O)C3O)C2O)C(C)(O)CC(C)C(=O)C(C)C(O)C1(C)O` (stereo not drawn) [Compound 757, 3′-de-N-methyl-3′-N-{4-amino-(3′-de-N-methyl-erythromycin A)}-2(E) -butenyl-erythromycin A], in test [1] (100 μg/8 mm disk), the “Inhibition activity (inhibition ring mm) C. albicans ATCC 64548 GYF” value is recorded as 17 mm; the “Transparency of the inhibition ring C. albicans ATCC 64548 GYF” value is given as “E (Growth of test organism was inhibited 35% or less.)”; the “Inhibition activity (inhibition ring mm) C. albicans ATCC 64548 GYM” value is reported as 18 mm; the “Transparency of the inhibition ring C. albicans ATCC 64548 GYM” value is “D (Growth of test organism was inhibited 35% or more and 55% or less.)”. Further, in test [2] (setting [5]), the “Inhibition activity (inhibition ring mm) A. niger ATCC 6275 GY” value was 10 mm and the “Transparency of the inhibition ring A. niger ATCC 6275 GY” value is recorded as “E (Growth of test organism was inhibited 35% or less.)”.
For the compound `CCC1OC(=O)C(C)C(OC2CC(C)(OC)C(O)C(C)O2)C(C)C(OC2OC(C)CC(N(C)CC=CCN(C)C3CC(C)OC(OC4C(C)C(OC5CC(C)(OC)C(O)C(C)O5)C(C)C(=O)OC(CC)C(C)(O)C(O)C(C)C(=O)C(C)CC4(C)OC)C3O)C2O)C(C)(OC)CC(C)C(=O)C(C)C(O)C1(C)O` (stereo not drawn) [Compound 758, 3′-de-N-methyl-3′-N-{4-amino-(3′-de-N-methyl-clarythromycin A)}-2(E)-butenyl-clarythromycin A], in test [1] (10 μg/8 mm disk), the “Inhibition activity (inhibition ring mm) C. albicans ATCC 64548 GYM” value was found to be 11 mm and the “Transparency of the inhibition ring C. albicans ATCC 64548 GYM” value is given as “E (Growth of test organism was inhibited 35% or less.)”. For the same compound, in test [1] (50 μg/8 mm disk), the “Inhibition activity (inhibition ring mm) C. albicans ATCC 64548 GYM” value was 12 mm; the “Transparency of the inhibition ring C. albicans ATCC 64548 GYM” value was “D (Growth of test organism was inhibited 35% or more and 55% or less.)”. In test [1] (100 μg/8 mm disk), the “Inhibition activity (inhibition ring mm) C. albicans ATCC 64548 GYF” value is given as 15 mm and the “Transparency of the inhibition ring C. albicans ATCC 64548 GYF” value is reported as “E (Growth of test organism was inhibited 35% or less.)”.
As for `CCC1OC(=O)C(C)C(OC2CC(C)(OC)C(O)C(C)O2)C(C)C(OC2OC(C)CC(N(C)C)C2O)C(C)(O)CC(C)C(=NOCC=CCON=C2C(C)CC(C)(O)C(OC3OC(C)CC(N(C)C)C3O)C(C)C(OC3CC(C)(OC)C(O)C(C)O3)C(C)C(=O)OC(CC)C(C)(O)C(O)C2C)C(C)C(O)C1(C)O` (stereo not drawn) [Compound 759, 9(E)-4-{9(E)-oxime-erythromycin A}-2-butenyloxime-erythromycin A], in test [1] (100 μg/8 mm disk), the “Inhibition activity (inhibition ring mm) C. albicans ATCC 64548 GYM” value turned out to be 13 mm; the “Transparency of the inhibition ring C. albicans ATCC 64548 GYM” value was “D (Growth of test organism was inhibited 35% or more and 55% or less.)”.
`CCC1OC(=O)C(C)C(OC2CC(C)(OC)C(O)C(C)O2)C(C)C(OC2OC(C)CC(N(C)C)C2O)C(C)(O)CC(C)C(=NOCC=CCNCCNCC=CCON=C2C(C)CC(C)(O)C(OC3OC(C)CC(N(C)C)C3O)C(C)C(OC3CC(C)(OC)C(O)C(C)O3)C(C)C(=O)OC(CC)C(C)(O)C(O)C2C)C(C)C(O)C1(C)O` (stereo not drawn) [Compound 761]: in test [1] (100 μg/8 mm disk), the “Inhibition activity (inhibition ring mm) C. albicans ATCC 64548 GYM” value was found to be 14 mm and the “Transparency of the inhibition ring C. albicans ATCC 64548 GYM” value is listed as “E (Growth of test organism was inhibited 35% or less.)”.
Take `CCC1OC(=O)C(C)C(OC2CC(C)(OC)C(O)C(C)O2)C(C)C(OC2OC(C)CC(N(C)C)C2O)C(C)(O)CC(C)C(=NOCCCCON=C2C(C)CC(C)(O)C(OC3OC(C)CC(N(C)C)C3O)C(C)C(OC3CC(C)(OC)C(O)C(C)O3)C(C)C(=O)OC(CC)C(C)(O)C(O)C2C)C(C)C(O)C1(C)O` (stereo not drawn) [Compound 764, 9(E)-4-{9(E)-oxime-erythromycin A}-2(E)buthyloxime-erythromycin A]: in test [1] (50 μg/8 mm disk), the “Inhibition activity (inhibition ring mm) C. albicans ATCC 64548 GYM” value worked out at 9 mm and the “Transparency of the inhibition ring C. albicans ATCC 64548 GYM” value was “E (Growth of test organism was inhibited 35% or less.)”.

For the origin of these results see US20050176655A1, “Novel macrolide derivatives havaing effect of potentiating antifungal activity” (priority 2002, published 2005).
